Data on one compound can be found in article PMC11382572, “Structural and kinetic insights into the stereospecific oxidation of R-2,3-dihydroxypropanesulfonate by DHPS-3-dehydrogenase from Cupriavidus pinatubonensis” (Chemical Science, 2024).

Molecules are shown by their SMILES.

The assay has as its target T1, DHPS-3-dehydrogenase (CpHpsN) (Cupriavidus pinatubonensis, UniProt Q46N53).
T1 construct: gene hpsN
The experiment in a line: X-ray crystal structure, […] Å, co-crystallization; enzyme inhibition assay. The class given is biochemical.

T1 sequence (Q46N53 whole entry): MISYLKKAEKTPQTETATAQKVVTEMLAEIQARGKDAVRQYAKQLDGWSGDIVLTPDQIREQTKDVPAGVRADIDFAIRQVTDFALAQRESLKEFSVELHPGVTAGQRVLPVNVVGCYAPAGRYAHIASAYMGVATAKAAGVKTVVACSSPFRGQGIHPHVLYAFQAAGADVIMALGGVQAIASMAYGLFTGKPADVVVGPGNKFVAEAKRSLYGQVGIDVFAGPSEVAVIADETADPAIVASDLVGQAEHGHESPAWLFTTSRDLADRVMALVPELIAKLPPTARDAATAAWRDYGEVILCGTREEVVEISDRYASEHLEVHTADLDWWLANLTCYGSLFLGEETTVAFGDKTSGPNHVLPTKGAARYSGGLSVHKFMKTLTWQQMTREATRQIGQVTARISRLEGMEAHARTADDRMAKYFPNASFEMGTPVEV

In the case of `N[C@@H](CS(=O)(=O)O)C(=O)O` [L-cysteate], the IC50 was 2400 µM.

The IC50 is the concentration needed to halve the response being measured.
